Results from patent US8916607B2, “Use of piperphentonamine or salts thereof in manufacture of medicaments for treating brain diseases” (Guangzhou Municipal Zhongwei Biotechnology Limited Company, priority 2009, dated 2014).
Marks after values point to notes of the source that are not given here.

Key:
[1] = test system: cerebral hemorrhage in rats induced by collagenase; assay: ICH model induced by collagenase: brain water content (BWC); type: in vivo, Wistar rats
Experimental: (§1) Animals are randomly divided into five groups: sham operation 24 h group; cerebral hemorrhage (Intracerebral Haemorrhage, ICH)+physiological saline group (model); ICH+piperphentonamine hydrochloride (JBTA, 2 mg/kg) group, called as high dose group (h); ICH+piperphentonamine hydrochloride (JBTA, 0.5 mg/kg) group, called as low dose group (1); ICH+nimodipine (Nim, 0.5 mg/kg) group. The last four groups are divided into 4 h, 8 h, 12 h, 24 h as four time subgroups respectively. Physiological saline solution, piperphentonamine hydrochloride and nimodipine are intravenously injected from rat tail before the ICH model is established for 30 minutes, once a day. Injecting slowly, the total amount of drug liquid is controlled in 1 ml/200 g body weight: physiological saline solution also being administered in 1 ml/200 g body weight. Each group has 7 Wistar rats.
Observing the influence of piperphentonamine hydrochloride on the brain water content of intracerebral hemorrhage in rats in 4 h, 8 h, 12 h, 24 h, the animals of the different groups is anesthetized by chloral hydrate at predetermined time point, and decollating and taking the brain rapidly, putting the brain tissue on a filter paper wetted by saline solution to prevent water evaporating. Removing the leptomeninges and blood, cutting and taking the front half portion of brain tissue centered by the hole for the insertion needle, weighing precisely (accurate to 0.1 mg). It is controlled in 5 min to take the brain to finish weigh. Then putting in 95° C. constant temperature oven for 24 h, weighing the dry weight. The brain water content is calculated according to Blliot formula: BWC=(wet weight−dry weight)/wet weight×100%.
(§2) Divide the animals randomly into five groups: sham operation (sham) 24 h group; ICH+normal saline group (model); ICH+piperphentonamine maleate (4 mg/kg) group, namely high dose group (h); ICH+piperphentonamine maleate (2 mg/kg) group, namely low dose group (1); ICH+nimodipine (0.5 mg/kg) group. The last four groups were divided into four time subgroup of 4 h, 8 h, 12 h and 24 h. Physiological solution, piperphentonamine maleate and nimodipine were injected intravenous from rat tail vein 30 minutes before the ICH model made, once a day. Inject slowly, the total amount of drug liquid was controlled in 1 ml/200 g body weight: normal saline was also administered in 1 ml/200 g body weight. Each group has seven Wistar rats.

[2] = test system: cerebral hemorrhage in rats induced by collagenase; assay: cerebral hemorrhage (ICH) model induced by collagenase: neurology score; type: in vivo, Wistar rats
Experimental: as §1
The specific steps are as following: after the experimental rats are anesthetized by injecting chloral hydrate (350 mg/kg) in intraperitoneal, and being supinely immobilized in a stereotaxic instrument, and make the rat anterior fontanelle and posterior fontanelle in the same plane according to localization method reported by BAO Xinmin, etc. Being locally disinfected by iodine, incising in the midmost of scalp, scissoring the periosteum, exposing the anterior fontanelle, drilling a 1 mm diameter hole with thickness close to duramater in 3 mm left to the midline by number five needle. Inserting needle along the hole by the micro syringe fixed on a stereotaxic, the depth of needle insertion is 5.8 mm (i.e., the caudate nucleus position), slowly injecting collagenase VI 0.5 U. Injection time is 3 min, keeping for 5 min after injection, then pull the needle out, suturing the skin, and putting the rat into cage and feed. Inserting the needle and not injecting drugs in sham operation group, the remaining operations is the same as the above.
After animals wake up, scoring nerve function defect of each group immediately according to the grading classification standards of nerve defect reported by Bedersog (litter improved).
Choosing the animals with the score of 3 and more into the experiment, the animals are bred in different cages, eat and drink normally. Temperature is controlled in 20 to 25° C., score in 4 h, 8 h, 12 h, 24 h after establishment of the model.
as §2

human brain disease = assay: research in treating human brain diseases (no details); type: in vivo
[3] = test system: infective brain edema of rats (pertussis bacteria liquid); assay: infective cerebral edema: IL-1β, TNF-α (ELISA) and NO (Griess) in cerebral tissue; type: in vivo, SD rats; details: rat cerebral tissue, 4 h
Experimental: Determine the content of IL-1β, TNF-α and NO by using ELISA and Griess method.
Model preparation was same as that of example 4. Piperphentonamine acetate group was intraperitoneally injected with 0.5 mg/kg daily for 2 days 48 h before the injection of pertussis bacterial liquid. Rats in each group were decollated after being injected with bacterial liquid or saline 4 h. ELISA method and Griess method were used to measure the content of IL-1β, TNF-α and NO in brain homogenate of infectious brain edema model of rats.

[4] = test system: ischemia reperfusion injury of mouse brain; assay: SOD activity, MDA and GSH content of brain homogenate after cerebral ischemia reperfusion; type: in vivo, Kunming mice
Experimental: Ischemia reperfusion method in the mouse and the administration method are the same as above. After ischemia reperfusion is completed, executing by decollating, removing the brain and making homogenate by phosphate buffer in 0° C., determining the activity of SOD by pyrogallol autoxidation method, the content of MDA by TBA method, and the content of GSH by DTNB method, quantitate the protein by Coomassie brilliant blue method.

[5] = 0.5 mg/kg iv 30 min before ICH, 4 h
[6] = 0.5 mg/kg iv 30 min before ICH, 8 h
[7] = 0.5 mg/kg iv 30 min before ICH, 12 h
[8] = 0.5 mg/kg iv 30 min before ICH, 24 h
[9] = 2 mg/kg iv 30 min before ICH, 4 h
[10] = 2 mg/kg iv 30 min before ICH, 8 h
[11] = 2 mg/kg iv 30 min before ICH, 12 h
[12] = 2 mg/kg iv 30 min before ICH, 24 h

CN(CCC(=O)/C=C/c1ccc(O)cc1)CCc1ccc2c(c1)OCO2.Cl [piperphentonamine hydrochloride, Piperphentonamine hydrochloride]
brain water content (%) [1, 5]: 79.90 ± 0.84^Δ % | brain water content (%) [1, 6]: 81.19 ± 0.78^ΔΔ % | brain water content (%) [1, 7]: 82.70 ± 0.76^ΔΔ % | brain water content (%) [1, 8]: 84.98 ± 0.65^ΔΔ % | brain water content (%) [1, 9]: 79.29 ± 0.69 % | brain water content (%) [1, 10]: 79.73 ± 0.53^Δ** % | brain water content (%) [1, 11]: 80.75 ± 0.19^ΔΔ** % | brain water content (%) [1, 12]: 82.38 ± 0.73^ΔΔ** % | neurological score [2, 5]: 4.5 ± 0.87 | neurological score [2, 6]: 4.29 ± 1.02 | neurological score [2, 7]: 3.65 ± 1.19 | neurological score [2, 8]: 3.21 ± 1.61 | neurological score [2, 9]: 4.07 ± 0.74 | neurological score [2, 10]: 3.86 ± 1.19 | neurological score [2, 11]: 2.36 ± 0.8*^Δ | neurological score [2, 12]: 1.71 ± 0.57**^Δ | treating human brain and other diseases (human brain disease): obvious effect and clinical significance | IL-1β [3]: 318.4 ± 43.8^2)3) pg/g | NO [3]: 86.1 ± 5.9^2)3) nmol/g | TNF-α [3]: 499.7 ± 134.9^2)3) pg/g | GSH ([4]; 20 mg/kg): 10.34 ± 3.17 mg/g pr | MDA ([4]; 20 mg/kg): 4.48 ± 1.03 nmol/g pr | SOD ([4]; 20 mg/kg): 0.34 ± 0.02 Ku/g pr | GSH ([4]; 40 mg/kg): 13.1 ± 4.34 mg/g pr | MDA ([4]; 40 mg/kg): 3.74 ± 0.67 nmol/g pr | SOD ([4]; 40 mg/kg): 0.37 ± 0.02 Ku/g pr | GSH ([4]; 80 mg/kg): 14.77 ± 4.61 mg/g pr | MDA ([4]; 80 mg/kg): 3.53 ± 0.76 nmol/g pr | SOD ([4]; 80 mg/kg): 0.42 ± 0.04 Ku/g pr
